Measurements: US9808016B2, “Pesticide composition for shortening the virus lethal time” (priority 2012, dated 2017)

How the values were obtained:
[1] = system: Spodoptera litura; settings: for synergistic effects: chemical pesticide combined with the virus, compared with the pesticide alone; for LC50: 3 days after the treatment, NPV 5.5 × 10^5 PIB/ml where combined
[2] = system: third instar larvae of Spodoptera litura; assay: Lethal time (LT50/LT90) of third instar larvae treated with nucleopolyhedrovirus and low concentration pesticides; assay type: in vivo; settings: 1.47 ppm of Chlorantraniliprole alone
Excerpt: When treated with 5.5×10^5 PIB/ml of the Spodoptera litura nucleopolyhedrovirus alone, the 50% lethal time (LT50) of the third instar larvae was 9.2 days. But when treated with the formulation of the present invention, 5.5×10^5 PIB/ml of the virus and 1.47 ppm of Chlorantraniliprole, the LT50 was shortened to 1-2 days and the 90% of lethal time (LT90) was achieved by 3-4 days (see Table 1).

[3] = system: Spodoptera litura; assay: Control rate of Spodoptera litura in Brassica oleracea crops in the field; assay type: in vivo; settings: for Control rate One week after the first treatment / Control rate One week after the second treatment / Control rate One week after the third treatment / Control rate Two weeks after the third treatment / Control rate mean: field, NPV 10^6 PIB/mL, Chlorfluazuron 5 ppm, Chlorantraniliprole 1.47 ppm; for Control rate One week after the first treatment / Control rate One week after the second treatment / Control rate One week after the third treatment / Control rate Two weeks after the third treatment: Brassica oleracea; for Control rate mean: mean of the four assessments
Excerpt: Although mixing of proper pesticides can achieve synergistic effects, the mixture with current concentration for field application equals to twice the amount of pesticides used (If the viruses or pesticides are originally used individually, the mixture would be the same concentration used together). […] The content of Chlorantraniliprole used in the present invention (2% of the current registered concentration, 1.47 ppm) was 50 folds lower than the existing application technique. When mixing with Spodoptera litura nucleopolyhedrovirus, the LT50 of the third instar larvae was less than 2 days and the LT90 was only 3-4 days. […] However, when mixing the low concentration of Chlorantraniliprole with the virus, only 2% of the current registered amount of Chlorantraniliprole was mixed with the virus, 85-95% of control rate was achieved (Table 3).
The concentration of the Spodoptera litura nucleopolyhedrovirus: 10^6 PIB/mL; Chlorfluazuron was 5 ppm (20% of the current registered concentration); Chlorantraniliprole was 1.47 ppm (2% of the current registered concentration)

[4] = system: third instar larvae of Spodoptera litura; assay: Cumulative death rates of third instar larvae (FIG. 1); assay type: in vivo; settings: Chlorantraniliprole 7.36 ppm alone
Excerpt: The cumulative death rates of the third instar larvae of Spodoptera litura to 10% of the registered concentration of Chlorantraniliprole (7.36 ppm), nucleopolyhedrovirus (5.5×10^5 PIB/ml) and the mixture of 10% of the registered concentration of Chlorantraniliprole+nucleopolyhedrovirus were shown in FIG. 1. It cost 11 days for the treatment of nucleopolyhedrovirus alone to achieve 100% of death rate. For the treatment of Chlorantraniliprole alone, only 80% of death rate was achieved.

[5] = system: third instar larvae of Spodoptera litura; assay: Indoor experiments: death rates with seven concentrations of Chlorantraniliprole mixed with nucleopolyhedrovirus (FIG. 2); assay type: in vivo; settings: 40 ppm of Chlorantraniliprole
Experimental: In the indoor experiments, the third instar larvae of Spodoptera litura were treated with the mixtures of seven different concentrations of Chlorantraniliprole with the nucleopolyhedrovirus. […] The synergistic effect of the mixture was more significant especially in the comparison of the low death rate caused by the low concentration of Chlorantraniliprole (see FIG. 2).

SMILES	synergistic effects [1]	pest control effect [2]	Control rate One week after the first treatment [3] [%]	Control rate One week after the second treatment [3] [%]	Control rate One week after the third treatment [3] [%]	Control rate Two weeks after the third treatment [3] [%]	pest control effects in the field ([3]; low concentration (1.47 ppm) administered alone)	Control rate mean [3] [%]	death rate achieved [4] [%]	death rate [5] [%]	LC50 [1] [ppm]
N#Cc1ccc(CC(=NNC(=O)Nc2ccc(OC(F)(F)F)cc2)c2cccc(C(F)(F)F)c2)cc1 (mixture of isomers) [Metaflumizone]	interfered effects	–	–	–	–	–	–	–	–	–	–
CNC(=O)c1cc(Cl)cc(C)c1NC(=O)c1cc(Br)nn1-c1ncccc1Cl [Chlorantraniliprole]	4 folds	no pest control effect	31.6	22.9	77.3	−5	no pest control effects	32	80	100	1.36
CCOCn1c(-c2ccc(Cl)cc2)c(C#N)c(Br)c1C(F)(F)F [Chlorfenapyr]	–	–	–	–	–	–	–	–	–	–	11.8
O=C(NC(=O)c1c(F)cccc1F)Nc1cc(Cl)c(Oc2ncc(C(F)(F)F)cc2Cl)c(Cl)c1 [Chlorfluazuron]	–	–	−3.2	−50.3	38.6	19.2	–	1.0	–	–	7.48
